This note sets out measurements from publication PMC11249626, “Fluorophore-Labeled Pyrrolones Targeting the Intracellular Allosteric Binding Site of the Chemokine Receptor CCR1” (ACS Pharmacology & Translational Science, 2024).

Where two headings read alike, the source gives them in different places. Bounds are passed on as bounds.

One assay deals with T1, CCR2 (Homo sapiens, UniProt P41597).
T1 construct: host or cells: HEK293T, transient
T1 sequence (P41597 1-360 isoform P41597-2): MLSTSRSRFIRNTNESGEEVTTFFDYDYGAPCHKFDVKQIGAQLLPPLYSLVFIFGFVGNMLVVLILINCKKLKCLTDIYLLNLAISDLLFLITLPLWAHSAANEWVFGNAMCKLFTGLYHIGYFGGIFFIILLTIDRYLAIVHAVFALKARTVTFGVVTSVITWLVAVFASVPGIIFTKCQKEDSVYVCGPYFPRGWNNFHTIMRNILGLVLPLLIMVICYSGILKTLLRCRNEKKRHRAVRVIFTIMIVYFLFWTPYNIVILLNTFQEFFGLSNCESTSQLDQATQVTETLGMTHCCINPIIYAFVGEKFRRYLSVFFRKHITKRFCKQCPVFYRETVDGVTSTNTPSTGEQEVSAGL
Nature of the assay: NanoBRET competition binding assay for CCR2 based on 7, as previously reported. Conditions: for inhibition at 20 µM: compound at 20 μM. The text has this:
With 6 (Figure 1), a first lead structure for intracellular CCR1 inhibition that features an approximately 20-fold CCR1 over CCR2 selectivity was previously discovered by Ortiz Zacarías et al.([33]) In order to discover new chemotypes for selective CCR1 over CCR2 inhibition, we aimed to apply our novel NanoBRET competition binding assay for CCR1 in combination with our recently published CCR2 competition binding assay based on 7.[47] In our first attempt, we screened a small in-house library enriched with intracellular GPCR ligands and structural analogues thereof. […] Additionally, we tested 23 for binding to the IABS of CCR9 and CXCR2 using our recently reported NanoBRET-based assay platform (Figure 6C).[44],[45] In the course of these studies, we detected no binding of 23 to CCR9 and CXCR2 up to a concentration of 20 μM. Since cell lineage-dependent effects have been observed for CCR1 antagonists,[59] we studied the CCR1 over CCR2 selectivity of 23 by using a previously reported radioligand binding assay with membrane preparations from osteosarcoma (U2OS) cells stably expressing human CCR1 or CCR2.[33] […] In agreement with these previous reports,[33] we observed a reduction in CCR1 over CCR2 selectivity when moving from membrane-based binding assays to cell-based functional assays. […] To investigate a potential signaling bias of 23, we tested the compound by means of a NanoBiT miniGi recruitment assay.[60] […] Thus, this indicated no strong signaling bias of 23 (Figures S9E and S10C). To elucidate the SAR of this new scaffold for selective CCR1 over CCR2 inhibition, we synthesized several analogues of 23 (24–40) and tested them by means of our NanoBRET competition binding assays (Schemes S2 and S3, Table 1, Figures 6F and S11). First, we aimed to examine the impact of the stereochemistry of 23 on CCR1 affinity. As for the structurally related pyrrolone 4, large differences in CCR2 affinity between the eutomer 4-[R] and the distomer 4-[S] were described.[61] […] Furthermore, we identified the 4-hydroxyphenethyl group at position 1 of the pyrrolone scaffold as highly important for CCR1 affinity and selectivity. Its presence seems to block CCR2 binding, also when combined with the structural features of the high-affinity CCR2 ligand 5, as exemplified by 24. Especially the 4-hydroxy group at this moiety is essential for CCR1 binding (see 25 and 26). […] In position 5 of the pyrrolone, several aromatic and aliphatic substituents were tolerated (see 31–35).

Assay [1] addresses T2, CCR1 (Homo sapiens, UniProt P32246).
T2 sequence (P32246 1-355): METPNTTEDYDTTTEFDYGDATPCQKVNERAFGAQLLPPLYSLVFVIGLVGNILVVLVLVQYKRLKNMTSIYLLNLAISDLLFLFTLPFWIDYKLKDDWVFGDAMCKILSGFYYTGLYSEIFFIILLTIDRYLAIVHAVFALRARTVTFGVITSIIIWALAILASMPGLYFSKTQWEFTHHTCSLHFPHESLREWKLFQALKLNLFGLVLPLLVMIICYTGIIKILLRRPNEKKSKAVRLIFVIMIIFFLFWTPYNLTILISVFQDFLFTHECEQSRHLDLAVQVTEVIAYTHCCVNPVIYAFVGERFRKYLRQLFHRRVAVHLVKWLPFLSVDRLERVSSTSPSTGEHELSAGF
Put plainly: Membrane-based NanoBRET competition assay with 12 (2000 nM) and CCR1_Nluc membranes. The format is binding. Set-up: Promega pNLF1-C (Nluc) #CCR010TN00; host or cells: HEK293T, transient (PEI). Conditions: 12 (2000 nM); for CCR1 inhibition class (n.i.) / % inh. of tracer binding, CCR1: compound at 20 μM. A general note: Bioluminescence resonance energy transfer reports proximity on the nanometre scale.

Assay [2] concerns the target T2, CCR1. Nature of the assay: Live cell NanoBRET binding assay, HEK293T cells expressing CCR1_Nluc. Also noted: Promega pNLF1-C (Nluc) #CCR010TN00; host or cells: HEK293T, transient (PEI). Conditions: 12 (1000 nM), live HEK293T cells.
Setting [3] is: read-out: CCR2 inhibition class (n.i.).
Setting [4] is: CCR1_Nluc membranes, read-out: Ki, CCR1 (converted).
Setting [5] is: read-out: % inh. of tracer binding, CCR2.
[6] abbreviates: CCR1_Nluc membranes, read-out: pKi ± SEM, CCR1 (converted).
Where [7] appears, read: CCR1_Nluc membranes, read-out: Ki, CCR1 (Figure 5B).

Regarding `O=C(C1=C(O)C(=O)N(CCc2ccc(O)cc2)C1c1ccc(F)cc1)c1ccccc1` (single isomer, unassigned; (+)) [(+)-23], on CCR2 (setting [3]), the inhibition at 20 µM is less than 10%. The Ki at CCR1 [1] (setting [4]) is 65.7 nM.

Take `O=C(C1=C(O)C(=O)N(CCc2ccc(O)cc2)C1c1ccc(F)cc1)c1ccccc1` (single isomer, unassigned; (-)) [(-)-23]: the inhibition at 20 µM at CCR2 (setting [5]) came out at 27%. Besides, the values for the Ki on CCR1 [1] (setting [4]) and on CCR1 [1] (setting [6]) were 216 nM and 209 nM, respectively.

With `CS(=O)(=O)c1cc(C2(NC(=O)c3cncc4c3cnn4-c3ccc(F)cc3)CC2)ccn1` [compound 3, reference compound], the “Enhancement of CCR1 binding of 12” value at CCR1 [1] (CCR1_Nluc membranes) was roughly 150%.

Turning to `COCc1cn(CCCC(=O)C2=C(O)C(=O)N(c3ccc(Br)cc3F)C2C2CCCCC2)nn1` (centres unmarked) [compound 10], at CCR1 [1] (setting [4]), the Ki is 97.6 nM.

In the case of `CC(C)C[C@H](CO)Nc1nc(S[C@@H](C)c2ccccc2)nc2nc(N)sc12` [compound 18, reference compound], the Ki on CCR1 [2] (read-out: Ki, live cells) is 98.3 nM; at CCR1 [2] (read-out: pKi ± SEM, live cells (converted)), 93.3 nM; at CCR1 [1] (setting [4]), 75.6 nM; on CCR1 [1] (setting [6]), 72.4 nM.

In the case of `O=C(O)c1ccc(Oc2ncc(Cl)cc2NS(=O)(=O)c2ccc(Cl)c(C(F)(F)F)c2)cc1` [compound 19, reference compound], the Ki was 350 nM on CCR1 [1] (setting [7]) and 354 nM on CCR1 [1] (setting [4]).

Consider `CC[C@@H](Nc1c(Nc2cccc(C(=O)N(C)C)c2O)c(=O)c1=O)c1ccc(C)o1` [compound 20, reference compound], for which the Ki was 2340 nM at CCR1 [1] (setting [7]) and 2240 nM on CCR1 [1] (setting [6]).

Turning to `CC(C)(C)c1ccc(S(=O)(=O)Nc2ccc(Cl)cc2C(=O)c2cc[n+]([O-])cc2)cc1` [compound 21, reference compound], the results for the Ki at CCR1 [1] (setting [7]) and at CCR1 [1] (setting [6]) were 3130 nM and 2950 nM, respectively.

Turning to `CC(C)(C)c1ccc(S(=O)(=O)Nc2ccc(Cl)cc2-c2cncnc2N)cc1` [compound 22, reference compound], the Ki at CCR1 [1] (setting [7]) is 2950 nM; at CCR1 [1] (setting [6]) it was 2630 nM.

Take `CC(=O)C1=C(O)C(=O)N(CCc2ccc(O)cc2)C1C1CCCCC1` (centres unmarked) [compound 24]: at CCR2 (setting [5]), the inhibition at 20 µM amounted to 10%. Also, the “CCR1 inhibition class (n.i.)” value on CCR1 [1] is “n.i. (no inhibition (percentual inhibition at 20 μM < 10%))”.

Regarding `O=C(C1=C(O)C(=O)N(CCc2ccccc2)C1c1ccc(F)cc1)c1ccccc1` (centres unmarked) [compound 25], the inhibition at 20 µM at CCR2 (setting [3]) was less than 10%. Moreover, the Ki on CCR1 [1] (setting [4]) was 997 nM; at CCR1 [1] (setting [6]), 955 nM.

Consider `O=C(C1=C(O)C(=O)N(CCc2ccc(F)cc2)C1c1ccc(F)cc1)c1ccccc1` (centres unmarked) [compound 26], for which, on CCR2 (setting [3]), the inhibition at 20 µM was less than 10%. In addition, the Ki was 952 nM on CCR1 [1] (setting [4]) and 871 nM at CCR1 [1] (setting [6]).

As for `O=C(C1=C(O)C(=O)N(CCc2cccc(O)c2)C1c1ccc(F)cc1)c1ccccc1` (centres unmarked) [compound 27], the inhibition at 20 µM at CCR2 (setting [3]) is less than 10%. Moreover, the Ki is 184 nM at CCR1 [1] (setting [4]) and 178 nM on CCR1 [1] (setting [6]).

As to `O=C(C1=C(O)C(=O)N(CCc2ccccc2O)C1c1ccc(F)cc1)c1ccccc1` (centres unmarked) [compound 28], the inhibition at 20 µM on CCR2 (setting [5]) came to 49%. Moreover, on CCR1 [1] (setting [4]), the Ki is 291 nM.

Consider `O=C(C1=C(O)C(=O)N(Cc2ccc(O)cc2)C1c1ccc(F)cc1)c1ccccc1` (centres unmarked) [compound 29], for which, at CCR2 (setting [5]), the inhibition at 20 µM came to 42%. The Ki on CCR1 [1] (setting [4]) was 130 nM; on CCR1 [1] (setting [6]) it was 120 nM.

For `O=C(C1=C(O)C(=O)N(c2ccc(O)cc2)C1c1ccc(F)cc1)c1ccccc1` (centres unmarked) [compound 30], the inhibition at 20 µM on CCR2 (setting [3]) is less than 10%. On CCR1 [1], the “% inh. of tracer binding, CCR1” value is on record as 32% @ 20 μM.

In the case of `O=C(C1=C(O)C(=O)N(CCc2ccc(O)cc2)C1c1ccc(Br)cc1)c1ccccc1` (centres unmarked) [compound 31], the inhibition at 20 µM at CCR2 (setting [5]) was 19%. Further, the Ki was 189 nM at CCR1 [1] (setting [4]) and 182 nM at CCR1 [1] (setting [6]).

As to `O=C(C1=C(O)C(=O)N(CCc2ccc(O)cc2)C1c1cccc(Br)c1)c1ccccc1` (centres unmarked) [compound 32], at CCR2 (setting [3]), the inhibition at 20 µM is less than 10%. Further, the figures for the Ki at CCR1 [1] (setting [4]) and at CCR1 [1] (setting [6]) were 195 nM and 178 nM, respectively.

Take `O=C(C1=C(O)C(=O)N(CCc2ccc(O)cc2)C1c1ccc(Cl)cc1)c1ccccc1` (centres unmarked) [compound 33]: on CCR2 (setting [5]), the inhibition at 20 µM turned out to be 18%. In addition, the Ki on CCR1 [1] (setting [4]) was 200 nM; on CCR1 [1] (setting [6]) it was 191 nM.

As for `O=C(C1=C(O)C(=O)N(CCc2ccc(O)cc2)C1C1CCCCC1)c1ccccc1` (centres unmarked) [compound 34], the inhibition at 20 µM on CCR2 (setting [5]) is 37%. In addition, the Ki on CCR1 [1] (setting [4]) was 231 nM; on CCR1 [1] (setting [6]) it was 219 nM.

Regarding `O=C(C1=C(O)C(=O)N(CCc2ccc(O)cc2)C1c1ccccc1)c1ccccc1` (centres unmarked) [compound 35], on CCR2 (setting [3]), the inhibition at 20 µM is less than 10%. Moreover, the Ki was 279 nM on CCR1 [1] (setting [4]) and 257 nM at CCR1 [1] (setting [6]).

Take `O=C(C1=C(O)C(=O)N(CCc2ccc(O)cc2)C1c1ccc(F)cc1)C1CC1` (centres unmarked) [compound 36]: on CCR2 (setting [3]), the inhibition at 20 µM is less than 10%. Also, at CCR1 [1], the “% inh. of tracer binding, CCR1” value amounted to 25% @ 20 μM.

Consider `O=C(C1=C(O)C(=O)N(CCc2ccc(O)cc2)C1c1cccc(Br)c1)C1CC1` (centres unmarked) [compound 37], for which, at CCR2 (setting [3]), the inhibition at 20 µM is less than 10%. The “CCR1 inhibition class (n.i.)” value on CCR1 [1] is “n.i. (no inhibition (percentual inhibition at 20 μM < 10%))”.

For `O=C(C1=C(O)C(=O)N(CCc2ccc(O)cc2)C1c1ccc(F)cc1)c1ccc(O)cc1` (centres unmarked) [compound 38], the inhibition at 20 µM at CCR2 (setting [5]) came to 19%. The “% inh. of tracer binding, CCR1” value at CCR1 [1] is 42% @ 20 μM.

For the compound `O=C(C1=C(O)C(=O)N(CCc2ccc(O)cc2)C1c1ccc(F)cc1)c1cccc(O)c1` (centres unmarked) [compound 39], the inhibition at 20 µM on CCR2 (setting [3]) was less than 10%. The “% inh. of tracer binding, CCR1” value on CCR1 [1] was found to be 38% @ 20 μM.

For `O=C(C1=C(O)C(=O)N(c2ccc(Br)cc2F)C1c1ccc(F)cc1)c1ccccc1` (centres unmarked) [compound 40], the Ki at CCR2 (NanoBRET competition, tracer 7) was 7830 nM; on CCR1 [1] (setting [4]), 224 nM.

Consider `CC(=O)C1=C(O)C(=O)N(c2ccc(Br)cc2)C1c1ccccc1[N+](=O)[O-]` (centres unmarked) [compound 41], for which the “% inh. of tracer binding, CCR1” value at CCR1 [1] is listed as no less than 50%.

Turning to `Cc1ccc(S(=O)(=O)Nc2ccc(Cl)cc2C(=O)c2ccccc2)cc1` [compound 42], the “% inh. of tracer binding, CCR1” value at CCR1 [1] is on record as no less than 50%.

In the case of “CCL7: orthosteric CCR1 agonist chemokine, also referred to as MCP-3”, the “Competition with 12 at CCR1” value with CCR1 [1] (CCR1_Nluc membranes) is given as “no competition”.
